A short description of data set [1]: logP determination by HPLC (formic acid method). The format is physicochemical. Conditions: reversed-phase HPLC column (C18), reversed-phase column (C 18), 55° C., acidic range (pH 3.4), read-out: log P(HCOOH). As for the experimental part: 1) Description of the Method for Determining the logP Values (Formic Acid Method) The logP values were determined in accordance with EEC Directive 79/831 Annex V.A8 by HPLC (High Performance Liquid Chromatography) using a reversed-phase column (C 18). Temperature: 55° C. Mobile phases for determination in the acidic range (pH 3.4): Mobile phase A: acetonitrile+1 ml of formic acid/litre. Mobile phase B: water+0.9 ml of formic acid/litre. Gradient: 10% mobile phase A/90% mobile phase B to 95% mobile phase A/5% mobile phase B over 4.25 min. Calibration was carried out using unbranched alkan-2-ones (having from 3 to 16 carbon atoms) with known logP values (the logP values were determined by the retention times using linear interpolation between two successive alkanones). The lambda max values were determined in the maxima of the chromatographic signals using the UV spectra from 200 nm to 400 nm.

Data set [2] has as its system green peach aphid (Myzus persicae). Put plainly: Myzus test, spray treatment. The format is in vivo. Conditions: application rate of 500 g/ha; spray treatment of Chinese cabbage discs; after 6 days. As for the experimental part:
Myzus Test Spray Treatment Solvent: 78 parts by weight of acetone • • 1.5 parts by weight of dimethylformamide Emulsifier: 0.5 part by weight of alkylaryl polyglycol ether To produce a suitable preparation of active compound, 1 part by weight of active compound is mixed with the stated amounts of solvent and emulsifier, and the concentrate is diluted with emulsifier-containing water to the desired concentration. Discs of Chinese cabbage (Brassica pekinensis) infected by all stages of the green peach aphid (Myzus persicae) are sprayed with an active compound preparation of the desired concentration. After 6 days, the effect in % is determined. 100% means that all of the aphids have been killed; 0% means that none of the aphids have been killed.

On to `Clc1nc(-c2cccnc2)sc1-c1cccc(-c2ncccn2)n1` [2-{6-[4-Chloro-2-(pyridin-3-yl)-1,3-thiazol-5-yl]pyridin-2-yl}pyrimidine], for which the chromatographic logP in data set [1] amounted to 2.27.

Turning to `Clc1cnc(-c2cccc(-c3sc(-c4cccnc4)nc3Cl)n2)nc1` [5-Chloro-2-{6-[4-chloro-2-(pyridin-3-yl)-1,3-thiazol-5-yl]pyridin-2-yl}pyrimidine], in data set [1], the chromatographic logP stood at 3.27.

`Fc1nc(-c2cccnc2)sc1-c1cccc(-c2ncccn2)n1` [Example 1, 2-[6-(4-Fluoro-2-pyridin-3-ylthiazol-5-yl)pyridin-2-yl]pyrimidine]: in data set [1], the chromatographic logP was 2.15. Also, in data set [2], the “effect in % (100% means that all of the aphids have been killed)” value is recorded as 100%.
